As usually defined, the inhibition is the drop in the measured response relative to a control, in per cent. A word on the EC50: it is the concentration at which the effect is half-maximal. A word on the IC50: it is the concentration needed to halve the response being measured.

In series [1] the test system is HIV-1 BaL. As to the kind of experiment: Anti-HIV assay (luciferase, HIV-1 BaL infection). Format: cell-based. As for the experimental part: Assays were performed below in accordance with the procedures set forth in The Journal of Immunology, 2006, 176, pp. 6900-905; AIDS Research and Human Retroviruses, 2004, 20:11, pp. 1157-1665.^32,33 Cells were treated with 2 ng/mL p24 of HIV-1 BaL administered; MOI approx 0.02 (see refs 32, 33). Cells were treated with 2 ng/mL p24 of HIV-1 BaL administered; MOI approx 0.02 (see refs 32, 33).

Series [2] concerns the target T1, US28 receptor (Human cytomegalovirus, UniProt P69332).
T1 construct: expressed in transfected cells; host or cells: HEK 293T cells, transiently transfected
As to the kind of experiment: PathDetect trans Elk1 luciferase reporter gene assay in US28-transfected 293T HEK cells. Format: cell-based, Human Cytomegalovirus (HCMV). As to conditions: for type of activity on the US28 receptor (agonist / inverse agonist / none), in words: Elk1 reporter, US28-transfected HEK cells; for Efficacy(%): maximum intrinsic activity from dose-response curve; for Efficacy(%) / Emax: negative = inverse agonism; for Emax: read-out: Efficacy(%), maximum intrinsic activity from dose-response curve. From the text: Having generated a homologous series of chalcones and flavones, their ability to interact with the US28 receptor in human embryonic kidney (HEK) cells was investigated using an Elk-1 gene reporter assay (FIG. 2). HEK cells were transfected with either an empty vector (i.e., mock cells) or with a vector carrying US 28. These matched HEK cells provided a means to evaluate off-target effects as well as innate drug toxicity. As many of the flavonoid drugs were not water-soluble, all drug stock solutions were made in 100% dimethylsulfoxide (DMSO). The final DMSO concentration for each cell-based experiment, however, was 1% DMSO. To account for the presence of DMSO, 1% DMSO controls were run in parallel. […] values of the homologous series were also determined in Chinese hamster ovary (CHO) cells in order to assess the relative toxicities of each member of the series in a different cell line (see Table 1).
Interaction with the US28 receptor was measured by a decrease in luminescence using a firefly (Photinus pyralis) luciferase-based PathDetect Elk1 gene reporter assay (FIG. 2).^23,24 This assay assessed the modulation of US28-mediated activation of mitogen-activated protein kinase (MAPK) signaling pathways (results are shown in Table 1). […] Such compounds which reduce MAPK signaling will have direct utility in the treatment of proliferative disorders including but not limited cancer.
After transfection the US28 is expressed and activates MAPK. The MAPK phosphorylates the activator domain of the GAL4dbd/Elk1 fusion protein, and causes its dimerization. The dimer then binds to the GAL4 UAS region of the reporter gene and allows for luciferase transcription. The luciferase mRNA is then translated and the luciferase protein is detected via luminescence by the use of the Bright-Glo reagent.
(§1) The efficacy of each compound on the US28 receptor was investigated in luciferase based reporter gene assay PathDetect trans Elk1 (Agilent, Stratagene)^23 as described previously.^13 Briefly, the human embryonic kidney (HEK) 293T cells were transiently-transfected with 0.1 μg Elk1, 5 μg Luc, and 5 μg of US28 vector or empty pcDNA3 vector (mock cells). Five hours after transfection, the cells were washed with DMEM containing 1% FBS, harvested, seeded in a white half-area 96-well plate (20,000 cells/well) and incubated with the indicated concentrations of test compounds. The incubation buffer consisted of DMEM, 1% FBS, 2 mM L-glutamine, 1% penicillin-streptomycin and 1% DMSO. The cells were incubated at 37° C. in the humid atmosphere with 5% CO2 for an additional 20-24 hours. The luciferase substrate BrightGlo (Promega) was used according to the manufacturer's instruction. The luminescence intensity was acquired using microplate reader Victor3V (Perkin-Elmer). The basal luminescence of mock transfected cells was approximately 500 RLU and the basal luminescence of US28-transfected cells was 4-5-fold higher (2000-2500 RLU). As the inhibitors gave differential responses in terms of their ability to reduce US 28 mediated signaling, their relative EC50 values were determined by dosing the US-28 transfected HEK cells with increasing concentrations of each compound. In this case, the EC50 value is the concentration of the compound needed to provoke a response halfway between the compound's maximal response (change in luminescence) and the no-compound control in the same US-28 transfected cell line. A plot of relative luminescence versus log of the compound concentration provided a dose-response curve from which the % efficacy was derived via non-linear regression methods using the algorithms in PRISM 5.0 (GraphPad Software, San Diego, Calif.).
Background: Reporter assays use an easily measured gene product as a stand-in for the process of interest.

The test system of series [3] is mock transfected 293T HEK cells. In words: PathDetect Elk1 luminescence in mock transfected (empty pcDNA3 vector) 293T HEK cells, off-target effect. Format: cell-based, human. As for the experimental part:
As a control, the empty pcDNA3 plasmid vector and the components of PathDetect system were also used for mock transfection of 293T HEK cells. Controls containing 1% DMSO were run in parallel. The relative luminescence results found with mock transfected 293T HEK cells treated with 10 μM drug and the untreated 1% DMSO control were compared via the following Equation 1. % Effect on mock cells=(100%×(mock cell luminescence/DMSO control luminescence))−100% Equation (1)
This equation was derived in order to assess the net effect each compound had on non-US28 containing HEK cells transfected via the same protocol. These control experiments were critical as they provided a method to address off target effects such as compound toxicity, which could give rise to false positives in the PathDetect assay.
Compounds, which had no off-target effects, gave nearly identical luminescence values in both the mock cells and the 1% DMSO control (i.e., a mock cell luminescence/DMSO control luminescence ratio of 1) and a net effect of 0% via Equation 1 (e.g., 9j: 0% in Table 1). In contrast, compounds that were stimulatory to the treated HEK cells gave higher mock cell luminescence than the DMSO control, a ratio >1, and a net positive value in Equation 1 for the % effect on mock cells (e.g., 8f: 290%). On the other hand, compounds that were intrinsically toxic gave lower luminescence in the treated mock cells than the DMSO control, a ratio below 1, and a net negative value for the % effect on mock cells (e.g., 8d: ˜42%).
as §1

Series [4] has as its system CHO cells. In words: CHO cell toxicity, MTS assay, 48 h. Format: cell-based, Chinese hamster. Conditions: 37° C., MTS reagent; for IC50: Cricetulus griseus, CHO, read-out: CHO 48 h IC50 value. As for the experimental part: In each case, the chalcone system 8 was more toxic than the corresponding ring-closed system, 9.
The CHO assay was conducted to assess the general toxicity of each flavonoid drug. Briefly, cell growth was assayed in sterile 96-well microtiter plates (Costar 3599, Corning, N.Y., USA) in the presence of each drug. Experiments were conducted in triplicate. CHO cells were plated at 10,000 cells/mL. Drug solutions were prepared in 100% DMSO and dosed so that the final DMSO concentration was <1%. For example, 1 μL of drug solution was added to the CHO cells plated in each well in 100 μL of media. Drug additions occurred after an initial overnight incubation of CHO cells in each well. After drug was added, the cells were incubated in 5% CO2 for 48 h at 37° C. The MTS reagent (Promega Cell Titer 96 Aqueous non-radioactive cell proliferation reagent) was added (20 μL) and the CHO cells were incubated for an additional 4h and then absorbance at 490 nm was measured on a BioTek Synergy MX plate reader. […] IC50 values were determined from the corresponding plot of relative absorbance at 490 nm vs drug concentration.

The nature of series [5]: TZMbI assay for cell safety (cell viability and growth, CytoTox Glo). As to conditions: human, TZMbI cells, read-out: % decrease in viability compared to 0.1% DMSO vehicle based on viable cell luminescence. As for the experimental part: Assays were performed below in accordance with the procedures set forth in The Journal of Immunology, 2006, 176, pp. 6900-905; AIDS Research and Human Retroviruses, 2004, 20:11, pp. 1157-1665.^32,33 TZMbI assays for cell safety were performed to identify potential anti-viral compounds. TZMbI assays for cell safety were performed to identify potential anti-viral compounds per the methods.

[6] abbreviates: 10 μM, Experiment 1B, 2 ng/mL p24 HIV-1 BaL.
The mark [7] stands for this setting: Human immunodeficiency virus 1, BAL, 10 μM, Experiment 1B, 2 ng/mL p24 HIV-1 BaL.
The mark [8] stands for this setting: 293T HEK cells transiently expressing US28, Elk1 reporter, NE = no effect when tested at 10 μM of compound.
[9] abbreviates: EC50 (μM), 293T HEK cells transiently expressing US28, Elk1 reporter, NE = no effect when tested at 10 μM of compound.

Entries after “also recorded” stand apart in the source; their conditions may differ. Where two headings read alike, the source gives them in different places.

T1 sequence (P69332 whole entry): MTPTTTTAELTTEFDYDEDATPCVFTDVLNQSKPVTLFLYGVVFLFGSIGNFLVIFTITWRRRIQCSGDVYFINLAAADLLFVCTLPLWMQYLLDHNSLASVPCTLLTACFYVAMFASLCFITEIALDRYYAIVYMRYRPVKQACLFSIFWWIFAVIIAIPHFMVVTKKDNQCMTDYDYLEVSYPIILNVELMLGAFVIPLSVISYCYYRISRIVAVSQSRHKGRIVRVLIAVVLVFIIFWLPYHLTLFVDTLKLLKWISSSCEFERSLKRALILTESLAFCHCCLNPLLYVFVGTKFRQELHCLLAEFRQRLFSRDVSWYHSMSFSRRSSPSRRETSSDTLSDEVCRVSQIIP

For `COc1ccccc1-c1cc(=O)c2ccccc2o1` [Compound 11c, 2-(2-Methoxyphenyl)-4H-chromen-4-one], the “RLU (relative luciferase units)” value in series [1] (setting [6]) was 235.6 RLU. In series [1] (setting [7]), the inhibition at 10 µM came out at 74.8%. For the same compound, the EC50 in series [2] (setting [8]) and in series [2] (setting [9]) was over 10 µM throughout. In series [2], the “type of activity on the US28 receptor (agonist / inverse agonist / none), in words” value is “inactive ligand”. In addition, the activation at 10 µM in series [3] (Homo sapiens, 10 μM vs 1% DMSO control, Equation 1, read-out: Effect(%) on mock cells with each drug at 10 μM) is 3%. Also, in series [4], the IC50 was found to be 64.8 ± 8.1 µM. Further, in series [5] (Experiment 1A), the cytotoxicity at 10 μM came to 39.5%.

In the case of `CC[C@H](C)[C@@H]1NC(=O)CNC(=O)[C@H](CCCCN)NC(=O)CNC(=O)[C@@H]2CSSC[C@H](NC1=O)C(=O)N[C@@H](CCCNC(=N)N)C(=O)N[C@H]1CSSC[C@H](NC(=O)[C@H](CCCNC(=N)N)NC(=O)[C@@H]3CSSC[C@H](NC(=O)[C@H]([C@@H](C)CC)NC1=O)C(=O)NCC(=O)N[C@@H](CCCNC(=N)N)C(=O)NCC(=O)N[C@@H]([C@@H](C)CC)C(=O)N3)C(=O)N[C@@H]([C@@H](C)CC)C(=O)N2` [RC-101, reference compound], in series [1] (10 μM, Experiment 2B), the “Mean % Inhibition of Infection” value is 99.38% and the “RLU (relative luciferase units)” value came to 1.67 RLU. In addition, in series [5] (Experiment 2A), the cytotoxicity at 10 μM is -1.43%.

For the compound `COc1ccccc1/C=C/C(=O)c1c(O)cccc1OCc1ccccc1` [Compound 8k, (E)-1-(2-(Benzyloxy)-6-hydroxyphenyl)-3-(2-methoxyphenyl)prop-2-en-1-one], in series [2] (setting [8]), the “EC50 (μM)” value is on record as “Toxic”. Besides, the “toxicity at 10 μM in HEK cells, in words” value in series [3] (10 μM) was “very toxic”. Moreover, the “Effect(%) on mock cells with each drug at 10 μM” value in series [3] (10 μM vs 1% DMSO control, Equation 1) is given as “Toxic”.

Regarding `COc1ccccc1-c1cc(=O)c2c(OCc3ccccc3)cccc2o1` [Compound 11a, 5-(Benzyloxy)-2-(2-methoxyphenyl)-4H-chromen-4-one], in series [2] (setting [9]), a half-maximal effect (EC50) was put at 7.3 µM. Moreover, the half-maximal inhibitory concentration (IC50) in series [4] amounted to 17.5 ± 1.9 µM.

Take `COc1ccc(Br)cc1/C=C/C(=O)c1ccccc1O` [Compound 8b, (E)-3-(5-Bromo-2-methoxyphenyl)-1-(2-hydroxyphenyl)prop-2-en-1-one]: the “RLU (relative luciferase units)” value in series [1] (setting [6]) came to 202.3 RLU. For the same compound, the inhibition at 10 µM in series [1] (setting [7]) turned out to be 78.6%. Further, it took 7.8 µM to reach a half-maximal effect in series [2] (setting [9]) (EC50). For the same compound, in series [2], the “Efficacy(%)” value is about 44% and the Emax was about 44%. For the same compound, in series [4], the half-maximal inhibitory concentration (IC50) is 8.7 ± 0.3 µM. Also, the cytotoxicity at 10 μM in series [5] (Experiment 1A) worked out at 64.2%.

For `COc1ccc(Br)cc1-c1cc(=O)c2c(OCc3ccccc3)cccc2o1` [Compound 11b, 5-(Benzyloxy)-2-(5-bromo-2-methoxyphenyl)-4H-chromen-4-one], the “RLU (relative luciferase units)” value in series [1] (5 μM, Experiment 2B) worked out at 24.27 RLU; in series [1] (setting [6]) it was 781.6 RLU; in series [1] (10 μM, Experiment 2B), 34.09 RLU; in series [1] (20 μM, Experiment 2B) it was 40.47 RLU; in series [1] (40 μM, Experiment 2B), 49.22 RLU; in series [1] (80 μM, Experiment 2B), 62.68 RLU. Moreover, the inhibition at 5 µM in series [1] (Human immunodeficiency virus 1, BAL, 5 μM, Experiment 2B) is -6.17%. Also, the inhibition at 10 µM is 16.5% in series [1] (setting [7]) and -15.1% in series [1] (Human immunodeficiency virus 1, BAL, 10 μM, Experiment 2B). Also, the inhibition at 20 µM in series [1] (Human immunodeficiency virus 1, BAL, 20 μM, Experiment 2B) is -18.1%. Also, the inhibition at 40 µM in series [1] (Human immunodeficiency virus 1, BAL, 40 μM, Experiment 2B) is -29.2%. In addition, the inhibition at 80 µM in series [1] (Human immunodeficiency virus 1, BAL, 80 μM, Experiment 2B) is -1.51%. For the same compound, the “type of activity on the US28 receptor (agonist / inverse agonist / none), in words” value in series [2] is recorded as “strong inverse agonism activity; also recorded: full inverse agonist”. For the same compound, the “Efficacy(%)” value in series [2] is on record as −89%. Moreover, in series [2] (pEC50 ± SEM, 293T HEK cells transiently expressing US28, Elk1 reporter), the half-maximal effective concentration (EC50) is 3.47 µM. Besides, the Emax in series [2] was -89%. Besides, the “CHO 48 h IC50 value (μM)” value in series [4] was “high CHO IC50 value; also recorded: essentially non-toxic; also recorded: not toxic”. The IC50 in series [4] worked out at 96.6 µM. Besides, in series [5] (5 μM, Experiment 2A), the cytotoxicity at 5 μM is -6.17%. Further, the cytotoxicity at 10 μM in series [5] (Experiment 1A) is 6.4%; in series [5] (Experiment 2A), -5.05%. Besides, the cytotoxicity at 20 μM in series [5] (20 μM, Experiment 2A) is -18.1%. In addition, the cytotoxicity at 40 μM in series [5] (40 μM, Experiment 2A) was -29.2%. The cytotoxicity at 80 μM in series [5] (80 μM, Experiment 2A) was -1.51%.

The record behind these values is patent US9629822B2, “Flavonoid based antiviral targets” (UNIVERSITY OF CENTRAL FLORIDA RESEARCH FOUNDATION, INC., priority 2012, dated 2017).
